From PubChem BioAssay (NCI)
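All cell lines were grown in 96-well plates and treated with compound for 48 hours. TGI: total growth inhibition.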

What was measured:
Test in all cases: NCI anticancer screen, dose series, 48 h
[1] = system: UO-31 renal
[2] = system: DMS 114 small cell lung
[3] = system: DLD-1 colon
[4] = system: HT29 colon
[5] = system: NCI-H23 lung
[6] = system: NCI-H522 lung
[7] = system: IGROV1 ovarian
[8] = system: HCT-15 colon
[9] = system: RXF 393 renal
[10] = system: HL-60(TB) leukemia
[11] = system: LOX IMVI melanoma
[12] = system: RXF-631 renal
[13] = system: SK-MEL-2 melanoma
[14] = system: SR leukemia
[15] = system: M19-MEL melanoma
[16] = system: SK-MEL-5 melanoma
[17] = system: U251 CNS
[18] = system: DMS 273 small cell lung
[19] = system: A549 NSCLC
[20] = system: KM20L2 colon
[21] = system: RPMI-8226 leukemia
[22] = system: K-562 leukemia
[23] = system: ACHN renal
[24] = system: LXFL 529 NSCLC
[25] = system: HCT-116 colon
[26] = system: NCI-H226 lung
[27] = system: CAKI-1 renal
[28] = system: HCC-2998 colon
[29] = system: CCRF-CEM leukemia
[30] = system: NCI-H460 lung
[31] = system: SNB-19 CNS
[32] = system: OVCAR-5 ovarian
[33] = system: EKVX NSCLC
[34] = system: COLO 205 colon
[35] = system: SNB-75 CNS
[36] = system: SF-295 CNS
[37] = system: OVCAR-8 ovarian
[38] = system: UACC-257 melanoma
[39] = system: SK-OV-3 ovarian
[40] = system: 786-0 renal
[41] = system: SF-268 CNS
[42] = system: M14 melanoma
[43] = system: MOLT-4 leukemia
[44] = system: SN12C renal
[45] = system: MALME-3M melanoma
[46] = system: OVCAR-3 ovarian
[47] = system: SF-539 CNS
[48] = system: OVCAR-4 ovarian
[49] = system: KM12 colon
[50] = system: XF 498 CNS
[51] = system: HOP-62 NSCLC
[52] = system: SW-620 colon
[53] = system: UACC-62 melanoma
[54] = system: SK-MEL-28 melanoma
[55] = system: TK-10 renal
[56] = system: SNB-78 CNS
[57] = system: HOP-92 NSCLC
[58] = system: A498 renal

COC(=O)C1=C(C(=O)OC)C2(C)OC1C(=O)C21CC1 (stereo not given)
TGI [1]: > 100 µM
TGI [2]: 42.9 µM
TGI [3]: 51.1 µM
TGI [4]: 37 µM
TGI [5]: 51.2 µM
TGI [6]: 25.9 µM
TGI [7]: 57.7 µM
TGI [8]: 44.6 µM
TGI [9]: 32.3 µM
TGI [10]: 39.6 µM
TGI [11]: 45.3 µM
TGI [12]: 36.1 µM
TGI [13]: > 100 µM
TGI [14]: 44.6 µM
TGI [15]: > 100 µM
TGI [16]: > 100 µM
TGI [17]: > 100 µM
TGI [18]: 40.2 µM
TGI [19]: > 100 µM
TGI [20]: 65.7 µM
TGI [21]: 42.7 µM
TGI [22]: 69.1 µM
TGI [23]: 41.6 µM
TGI [24]: 35.1 µM
TGI [25]: 43.4 µM
TGI [26]: > 100 µM
TGI [27]: 44.1 µM
TGI [28]: 53 µM
TGI [29]: 39.6 µM
TGI [30]: 63.5 µM
TGI [31]: > 100 µM
TGI [32]: > 100 µM
TGI [33]: > 100 µM
TGI [34]: 56.5 µM
TGI [35]: 99.7 µM
TGI [36]: > 100 µM
TGI [37]: 52.8 µM
TGI [38]: > 100 µM
TGI [39]: > 100 µM
TGI [40]: > 100 µM
TGI [41]: > 100 µM
TGI [42]: 34.9 µM
TGI [43]: 44.9 µM
TGI [44]: 43.4 µM
TGI [45]: 70.6 µM
TGI [46]: 55.8 µM
TGI [47]: 41.5 µM
TGI [48]: 25.1 µM
TGI [49]: > 100 µM
TGI [50]: 26.5 µM
TGI [51]: > 100 µM
TGI [52]: 38.6 µM

CC(=O)COC(=O)CC(C)=O
TGI [1]: > 100 µM
TGI [2]: > 100 µM
TGI [3]: > 100 µM
TGI [4]: > 100 µM
TGI [5]: > 100 µM
TGI [6]: > 100 µM
TGI [7]: > 100 µM
TGI [8]: > 100 µM
TGI [9]: > 100 µM
TGI [10]: > 100 µM
TGI [11]: > 100 µM
TGI [12]: > 100 µM
TGI [13]: > 100 µM
TGI [14]: > 100 µM
TGI [15]: > 100 µM
TGI [17]: > 100 µM
TGI [18]: > 100 µM
TGI [19]: > 100 µM
TGI [53]: > 100 µM
TGI [20]: > 100 µM
TGI [21]: > 100 µM
TGI [22]: > 100 µM
TGI [23]: > 100 µM
TGI [24]: > 100 µM
TGI [25]: > 100 µM
TGI [26]: > 100 µM
TGI [27]: > 100 µM
TGI [28]: > 100 µM
TGI [29]: > 100 µM
TGI [30]: > 100 µM
TGI [31]: > 100 µM
TGI [32]: > 100 µM
TGI [33]: > 100 µM
TGI [34]: > 100 µM
TGI [35]: > 100 µM
TGI [36]: > 100 µM
TGI [37]: > 100 µM
TGI [54]: > 100 µM
TGI [38]: > 100 µM
TGI [39]: > 100 µM
TGI [40]: > 100 µM
TGI [41]: > 100 µM
TGI [42]: > 100 µM
TGI [43]: > 100 µM
TGI [44]: > 100 µM
TGI [45]: > 100 µM
TGI [55]: > 100 µM
TGI [46]: > 100 µM
TGI [47]: > 100 µM
TGI [48]: > 100 µM
TGI [49]: > 100 µM
TGI [50]: > 100 µM
TGI [51]: > 100 µM
TGI [52]: > 100 µM

CCOC(=O)C(C(C)=O)C1CC=CC1 (stereo not given)
TGI [1]: > 100 µM
TGI [2]: > 100 µM
TGI [3]: > 100 µM
TGI [4]: > 100 µM
TGI [7]: > 100 µM
TGI [8]: > 100 µM
TGI [9]: > 100 µM
TGI [10]: > 100 µM
TGI [11]: > 100 µM
TGI [12]: > 100 µM
TGI [13]: > 100 µM
TGI [56]: > 100 µM
TGI [16]: > 100 µM
TGI [17]: > 100 µM
TGI [18]: > 100 µM
TGI [19]: > 100 µM
TGI [53]: > 100 µM
TGI [20]: > 100 µM
TGI [21]: > 100 µM
TGI [22]: > 100 µM
TGI [23]: > 100 µM
TGI [24]: > 100 µM
TGI [25]: > 100 µM
TGI [26]: > 100 µM
TGI [27]: > 100 µM
TGI [28]: > 100 µM
TGI [29]: > 100 µM
TGI [30]: > 100 µM
TGI [31]: > 100 µM
TGI [32]: > 100 µM
TGI [33]: > 100 µM
TGI [34]: > 100 µM
TGI [35]: > 100 µM
TGI [36]: > 100 µM
TGI [37]: > 100 µM
TGI [54]: > 100 µM
TGI [38]: > 100 µM
TGI [39]: > 100 µM
TGI [40]: > 100 µM
TGI [42]: > 100 µM
TGI [43]: > 100 µM
TGI [44]: > 100 µM
TGI [45]: > 100 µM
TGI [55]: > 100 µM
TGI [46]: > 100 µM
TGI [57]: > 100 µM
TGI [48]: > 100 µM
TGI [49]: > 100 µM
TGI [50]: > 100 µM
TGI [51]: > 100 µM
TGI [52]: > 100 µM

CC(=O)N(C(C)=O)c1c(N)n(C)c(=O)[nH]c1=O
TGI [1]: > 100 µM
TGI [2]: > 100 µM
TGI [3]: > 100 µM
TGI [58]: > 100 µM
TGI [4]: > 100 µM
TGI [5]: > 100 µM
TGI [7]: > 100 µM
TGI [8]: > 100 µM
TGI [9]: > 100 µM
TGI [10]: > 100 µM
TGI [11]: > 100 µM
TGI [12]: > 100 µM
TGI [13]: > 100 µM
TGI [15]: > 100 µM
TGI [16]: > 100 µM
TGI [18]: > 100 µM
TGI [19]: > 100 µM
TGI [53]: > 100 µM
TGI [20]: > 100 µM
TGI [21]: > 100 µM
TGI [22]: > 100 µM
TGI [23]: > 100 µM
TGI [24]: > 100 µM
TGI [25]: > 100 µM
TGI [26]: > 100 µM
TGI [27]: > 100 µM
TGI [28]: > 100 µM
TGI [29]: > 100 µM
TGI [30]: > 100 µM
TGI [31]: > 100 µM
TGI [32]: > 100 µM
TGI [33]: > 100 µM
TGI [34]: > 100 µM
TGI [36]: > 100 µM
TGI [37]: > 100 µM
TGI [54]: > 100 µM
TGI [38]: > 100 µM
TGI [40]: > 100 µM
TGI [41]: > 100 µM
TGI [42]: > 100 µM
TGI [43]: > 100 µM
TGI [44]: > 100 µM
TGI [45]: > 100 µM
TGI [46]: > 100 µM
TGI [47]: > 100 µM
TGI [57]: > 100 µM
TGI [48]: > 100 µM
TGI [49]: > 100 µM
TGI [50]: > 100 µM
TGI [52]: > 100 µM

NC(N)=N/N=C(/CCN1CCCC1)CC(c1ccccc1)c1c(O)c2ccccc2oc1=O (stereo not given)
TGI [2]: > 100 µM
TGI [3]: > 100 µM
TGI [4]: > 100 µM
TGI [5]: > 100 µM
TGI [6]: > 100 µM
TGI [7]: > 100 µM
TGI [9]: > 100 µM
TGI [11]: > 100 µM
TGI [12]: > 100 µM
TGI [13]: > 100 µM
TGI [15]: > 100 µM
TGI [19]: > 100 µM
TGI [53]: > 100 µM
TGI [20]: > 100 µM
TGI [21]: > 100 µM
TGI [22]: > 100 µM
TGI [23]: > 100 µM
TGI [24]: > 100 µM
TGI [25]: > 100 µM
TGI [26]: > 100 µM
TGI [27]: > 100 µM
TGI [28]: > 100 µM
TGI [31]: > 100 µM
TGI [33]: > 100 µM
TGI [34]: > 100 µM
TGI [35]: > 100 µM
TGI [36]: > 100 µM
TGI [54]: > 100 µM
TGI [38]: > 100 µM
TGI [39]: > 100 µM
TGI [40]: > 100 µM
TGI [41]: > 100 µM
TGI [42]: > 100 µM
TGI [44]: > 100 µM
TGI [45]: > 100 µM
TGI [55]: > 100 µM
TGI [46]: > 100 µM
TGI [47]: > 100 µM
TGI [57]: > 100 µM
TGI [48]: > 100 µM
TGI [50]: > 100 µM
TGI [51]: > 100 µM
TGI [52]: > 100 µM
